Measured values as given in patent US9029370B2, “Substituted benzamide derivatives” (Hoffmann-La Roche Inc., priority 2011, dated 2015).
Counter-ions that a name gives are not always drawn.

Tests used:
mouse TAAR1 = mouse TAAR1 (Mus musculus (Mouse), UniProt Q923Y8); test: Radioligand binding assay on mouse TAAR1; conditions: mouse TAAR1, HEK-293 membranes; first value of the pair (before the slash); read-out: Ki (μM) mouse/rat
Protocol: (§1) For the construction of expression plasmids the coding sequences of human, rat and mouse TAAR 1 were amplified from genomic DNA essentially as described by Lindemann et al.. The Expand High Fidelity PCR System (Roche Diagnostics) was used with 1.5 mM Mg^2+ and purified PCR products were cloned into pCR2.1-TOPO cloning vector (Invitrogen) following the instructions of the manufacturer. PCR products were subcloned into the pIRESneo2 vector (BD Clontech, Palo Alto, Calif.), and expression vectors were sequence verified before introduction in cell lines.
(§2) HEK293 cells (ATCC # CRL-1573) were cultured essentially as described by Lindemann et al. (2005). For the generation of stably transfected cell lines HEK293 cells were transfected with the pIRESneo2 expression plasmids containing the TAAR coding sequences (described above) with Lipofectamine 2000 (Invitrogen) according to the instructions of the manufacturer, and 24 hrs post transfection the culture medium was supplemented with 1 mg/ml G418 (Sigma, Buchs, Switzerland). After a culture period of about 10 d clones were isolated, expanded and tested for responsiveness to trace amines (all compounds purchased from Sigma) with the cAMP Biotrak Enzyme immunoassay (EIA) System (Amersham) following the non-acetylation EIA procedure provided by the manufacturer.
Radioligand Binding Assay on Mouse TAAR1
(§3) Membrane Preparation and Radioligand Binding.
(§4) HEK-293 cells stably expressing mouse TAAR1 were maintained at 37° C. and 5% CO2 in DMEM high glucose medium, containing fetal calf serum (10%, heat inactivated for 30 min at 56° C.), penicillin/streptomycin (1%), and 375 μg/ml geneticin (Gibco). Cells were released from culture flasks using trypsin/EDTA, harvested, washed twice with ice-cold PBS (without Ca^2+ and Mg^2+), pelleted at 1′000 rpm for 5 min at 4° C., frozen and stored at −80° C. […] The homogenate was centrifuged at 48′000×g for 30 min at 4° C. Subsequently, the supernatant was removed and discarded, and the pellet resuspended in 20 ml HEPES-NaOH (20 mM, pH 7.4) containing 0.1 mM EDTA using the Polytron (20 s at 14′000 rpm). This procedure was repeated and the final pellet resuspended in HEPES-NaOH containing 0.1 mM EDTA and homogenized using the Polytron. Typically, aliquots of 2 ml membrane portions were stored at −80° C. With each new membrane batch the dissociation constant (Kd) was determined via a saturation curve. […] Nonspecific binding was defined as the amount of ^3[H]-(S)-4-[(ethyl-phenyl-amino)-methyl]-4,5-dihydro-oxazol-2-ylamine bound in the presence of 10 μM unlabeled ligand. All compounds were tested at a broad range of concentrations (10 pM to 10 μM) in duplicates. […] The 96 deep well plates were incubated for 1 hr at 4° C. Incubations were terminated by rapid filtration through Unifilter-96 plates (Packard Instrument Company) and glass filters GF/C (Perkin Elmer) presoaked for 1 hr in polyethylenimine (0.3%) and washed 3 times with 1 ml of cold binding buffer. After addition of 45 μl of Microscint 40 (PerkinElmer) the Unifilter-96 plate was sealed and after 1 hr the ratioactivity counted using a TopCount Microplate Scintillation Counter (Packard Instrument Company).

rat TAAR1 = rat TAAR1 (Rattus norvegicus (Rat), UniProt Q923Y9); test: Radioligand binding assay on rat TAAR1; conditions: rat TAAR1, HEK-293 membranes; second value of the pair (line below); read-out: Ki (μM) mouse/rat
Protocol: as §1, §2
Radioligand Binding Assay on Rat TAAR1
as §3
as §4, with “rat” for “mouse”

Sequence of mouse TAAR1 (Q923Y8 whole entry): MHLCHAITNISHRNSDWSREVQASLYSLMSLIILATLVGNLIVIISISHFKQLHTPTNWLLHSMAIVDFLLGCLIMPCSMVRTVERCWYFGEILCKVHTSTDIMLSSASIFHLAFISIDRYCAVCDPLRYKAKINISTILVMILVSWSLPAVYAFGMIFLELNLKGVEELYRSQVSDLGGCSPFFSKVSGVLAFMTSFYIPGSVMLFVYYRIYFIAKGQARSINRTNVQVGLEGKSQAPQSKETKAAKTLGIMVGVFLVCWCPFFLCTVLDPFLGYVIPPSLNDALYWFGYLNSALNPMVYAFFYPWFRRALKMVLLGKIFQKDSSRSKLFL
Sequence of rat TAAR1 (Q923Y9 whole entry): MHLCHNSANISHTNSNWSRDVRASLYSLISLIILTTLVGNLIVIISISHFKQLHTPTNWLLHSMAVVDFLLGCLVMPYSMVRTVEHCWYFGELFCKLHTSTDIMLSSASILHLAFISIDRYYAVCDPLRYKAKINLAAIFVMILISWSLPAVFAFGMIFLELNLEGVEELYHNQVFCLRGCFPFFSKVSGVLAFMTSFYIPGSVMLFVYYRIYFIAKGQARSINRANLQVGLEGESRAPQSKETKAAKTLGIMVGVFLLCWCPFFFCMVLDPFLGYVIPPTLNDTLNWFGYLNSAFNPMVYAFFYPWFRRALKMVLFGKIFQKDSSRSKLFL

Ki (mouse TAAR1) [µM] | Ki (rat TAAR1) [µM] | Structure (SMILES)
0.0082 | 0.111 | O=C(Nc1ccc([C@@H]2CNCCO2)cc1Cl)c1ccc(Cl)nc1 [Example 35, (R)-6-Chloro-N-(2-chloro-4-(morpholin-2-yl)phenyl)nicotinamide]
0.0139 | 0.488 | O=C(Nc1ccc([C@H]2CNCCO2)cc1Cl)c1ccc(Cl)nc1 [Example 36, (S)-6-Chloro-N-(2-chloro-4-(morpholin-2-yl)phenyl)nicotinamide]
0.0043 | 0.12 | Cc1cc([C@@H]2CNCCO2)ccc1NC(=O)Nc1ccc(Cl)nc1 [Example 40, (R)-1-(6-Chloropyridin-3-yl)-3-(2-methyl-4-(morpholin-2-yl)phenyl)urea]
0.028 | 3.99 | Cc1cc([C@@H]2CNCCO2)ccc1NC(=O)c1ccc(Cl)nc1 [Example 42, 6-Chloro-N—((R)-2-methyl-4-morpholin-2-yl-phenyl)-nicotinamide]
0.002 | 0.0012 | N#Cc1ccc(OC(F)F)c(NC(=O)Nc2ccc([C@@H]3CNCCO3)cc2Cl)c1 [Example 47, (R)-1-(2-Chloro-4-(morpholin-2-yl)phenyl)-3-(5-cyano-2-(difluoromethoxy)phenyl)urea]
0.0022 | 0.0018 | N#Cc1ccc(OC(F)F)c(NC(=O)Nc2ccc([C@H]3CNCCO3)cc2Cl)c1 [Example 48, (S)-1-(2-Chloro-4-(morpholin-2-yl)phenyl)-3-(5-cyano-2-(difluoromethoxy)phenyl)urea]
0.0021 | 0.0015 | O=C(Nc1ccc(C(F)(F)F)nc1)Nc1ccc([C@@H]2CNCCO2)cc1Cl [Example 49, (R)-1-(2-Chloro-4-(morpholin-2-yl)phenyl)-3-(6-(trifluoromethyl)pyridin-3-yl)urea]
0.0018 | 0.0014 | O=C(Nc1ccc(C(F)(F)F)nc1)Nc1ccc([C@H]2CNCCO2)cc1Cl [Example 50, (S)-1-(2-Chloro-4-(morpholin-2-yl)phenyl)-3-(6-(trifluoromethyl)pyridin-3-yl)urea]
0.0067 | 0.0126 | O=C(Nc1cnc(C(F)(F)F)nc1)Nc1ccc([C@H]2CNCCO2)cc1Cl [Example 51]
0.0049 | 0.0058 | O=C(Nc1cnc(C(F)(F)F)nc1)Nc1ccc([C@@H]2CNCCO2)cc1Cl [Example 52, 1-((R)-2-Chloro-4-morpholin-2-yl-phenyl)-3-(2-trifluoromethyl-pyrimidin-5-yl)-urea]
0.0015 | 0.0017 | O=C(Nc1ccc(C(F)(F)F)cn1)Nc1ccc([C@H]2CNCCO2)cc1Cl [Example 53, (S)-1-(2-Chloro-4-(morpholin-2-yl)phenyl)-3-(5-(trifluoromethyl)pyridin-2-yl)urea]
0.003 | 0.0018 | O=C(Nc1ccc(C(F)(F)F)cn1)Nc1ccc([C@@H]2CNCCO2)cc1Cl [Example 54, (R)-1-(2-Chloro-4-(morpholin-2-yl)phenyl)-3-(5-(trifluoromethyl)pyridin-2-yl)urea]
0.0039 | 0.0127 | COc1ccc(C#N)cc1NC(=O)Nc1ccc([C@@H]2CNCCO2)cc1Br [Example 57, 1-((R)-2-Bromo-4-morpholin-2-yl-phenyl)-3-(5-cyano-2-methoxy-phenyl)-urea]
0.0038 | 0.0161 | COc1ccc(C#N)cc1NC(=O)Nc1ccc([C@H]2CNCCO2)cc1Br [Example 58, 1-((S)-2-Bromo-4-morpholin-2-yl-phenyl)-3-(5-cyano-2-methoxy-phenyl)-urea]
0.0018 | 0.001 | N#Cc1cc(F)cc(NC(=O)Nc2ccc([C@@H]3CNCCO3)cc2F)c1 [Example 59, 1-(3-Cyano-5-fluoro-phenyl)-3-((R)-2-fluoro-4-morpholin-2-yl-phenyl)-urea]
0.0008 | 0.001 | N#Cc1ccc(OC(F)F)c(NC(=O)Nc2ccc([C@@H]3CNCCO3)cc2Br)c1 [Example 60, 1-((R)-2-Bromo-4-morpholin-2-yl-phenyl)-3-(5-cyano-2-difluoromethoxy-phenyl)-urea]
0.0018 | 0.0025 | N#Cc1ccc(OC(F)F)c(NC(=O)Nc2ccc([C@H]3CNCCO3)cc2Br)c1 [Example 61, 1-((S)-2-Bromo-4-morpholin-2-yl-phenyl)-3-(5-cyano-2-difluoromethoxy-phenyl)-urea]

Structure (SMILES) | Ki (mouse TAAR1) [µM] | Ki (rat TAAR1) [µM]
O=C(Nc1ccc([C@H]2CNCCO2)cc1Cl)c1ccn(-c2ccc(F)cc2)n1 [Example 29, (S)—N-(2-Chloro-4-(morpholin-2-yl)phenyl)-1-(4-fluorophenyl)-1H-pyrazole-3-carboxamide] | 0.0017 | 0.0036
O=C(Nc1ccc([C@@H]2CNCCO2)cc1Cl)c1ccn(-c2ccc(F)cc2)n1 [Example 30, (R)—N-(2-Chloro-4-(morpholin-2-yl)phenyl)-1-(4-fluorophenyl)-1H-pyrazole-3-carboxamide] | 0.032 | 0.0012
O=C(Nc1ccc([C@H]2CNCCO2)cc1Cl)c1ccc(Cl)cc1 [Example 34, (S)-4-Chloro-N-(2-chloro-4-(morpholin-2-yl)phenyl)benzamide] | 0.0024 | 0.0229
COc1ccc(C#N)cc1NC(=O)Nc1ccc([C@H]2CNCCO2)cc1F [Example 39, (S)-1-(5-Cyano-2-methoxyphenyl)-3-(2-fluoro-4-(morpholin-2-yl)phenyl)urea hydrochloride] | 0.003 | 0.0085
COc1ccc(C#N)cc1NC(=O)Nc1ccc([C@@H]2CNCCO2)cc1Cl [Example 45, (R)-1-(2-Chloro-4-(morpholin-2-yl)phenyl)-3-(5-cyano-2-methoxyphenyl)urea] | 0.0023 | 0.0044
COc1ccc(C#N)cc1NC(=O)Nc1ccc([C@H]2CNCCO2)cc1Cl [Example 46, (S)-1-(2-Chloro-4-(morpholin-2-yl)phenyl)-3-(5-cyano-2-methoxyphenyl)urea] | 0.0016 | 0.0064
O=C(Nc1ccc(Cl)cn1)Nc1ccc([C@@H]2CNCCO2)cc1Cl [Example 55, (R)-1-(2-Chloro-4-(morpholin-2-yl)phenyl)-3-(5-chloropyridin-2-yl)urea] | 0.0012 | 0.0014
N#Cc1ccc(F)c(NC(=O)Nc2ccc([C@@H]3CNCCO3)cc2F)c1 [Example 56, 1-(5-Cyano-2-fluoro-phenyl)-3-((R)-2-fluoro-4-morpholin-2-yl-phenyl)-urea] | 0.002 | 0.0035
N#Cc1cccc(NC(=O)Nc2ccc([C@@H]3CNCCO3)cc2F)c1F [Example 62, (R)-1-(3-Cyano-2-fluorophenyl)-3-(2-fluoro-4-(morpholin-2-yl)phenyl)urea] | 0.0031 | 0.0028
